Experimental data as given in publication PMC10178848, “Modulating fast skeletal muscle contraction protects skeletal muscle in animal models of Duchenne muscular dystrophy” (The Journal of Clinical Investigation, 2023).

System: mdx mouse EDL muscle
Experiment: Phosphoprotein array analysis (Cell Signaling Phospho Antibody Array)
Method: mdx mouse EDL muscle was prepared for ex vivo analysis as described (n = 5). Muscles were incubated for 1 hour with DMSO or EDG-5506 (5 μM) and then flash frozen in liquid nitrogen. Tissue preparation and analysis were performed as recommended by the manufacturer (Cell Signaling Phospho Antibody Array, Full Moon Biosystems).

O=c1ccc(-c2cnc(OCC(F)(F)F)nc2)nn1Cc1cncc(F)c1 [EDG-5506]
Data Normalized to Median Signal: BAX (Phospho-Thr167): 0.77
Fold Change T/C: 4E-BP1 (Ab-45) (5 μM, 1 hour): 0.88
Fold Change T/C: 4E-BP1 (Phospho-Thr45) (5 μM, 1 hour): 0.74
Fold Change T/C: 14-3-3 theta/tau (Phospho-Ser232) (5 μM, 1 hour): 1.01
Fold Change T/C: 14-3-3 zeta/delta (Ab-232) (5 μM, 1 hour): 1.03
Fold Change T/C: ACC1 (Ab-80) (5 μM, 1 hour): 0.96
Fold Change T/C: ACC1 (Phospho-Ser80) (5 μM, 1 hour): 0.92
Fold Change T/C: AKT (5 μM, 1 hour): 0.96
Fold Change T/C: AKT1 (Ab-308) (5 μM, 1 hour): 1.11
Fold Change T/C: AKT1S1 (Ab-246) (5 μM, 1 hour): 1.04
Fold Change T/C: AMPKbeta1 (Ab-182) (5 μM, 1 hour): 0.89
Fold Change T/C: AMPKbeta1 (Phospho-Ser182) (5 μM, 1 hour): 0.80
Fold Change T/C: ASK1 (Ab-966) (5 μM, 1 hour): 0.99
Fold Change T/C: ATF2 (Ab-62/44) (5 μM, 1 hour): 2.53
Fold Change T/C: Actin Pan(a/b/g) (Ab-55/53) (5 μM, 1 hour): 0.97
Fold Change T/C: B-RAF (Ab-598) (5 μM, 1 hour): 1.09
Fold Change T/C: B-RAF (Phospho-Ser446) (5 μM, 1 hour): 1.05
Fold Change T/C: BAX (Phospho-Thr167) (5 μM, 1 hour): 0.78
Fold Change T/C: BCL-XL (Ab-47) (5 μM, 1 hour): 1.77
Fold Change T/C: BCL-XL (Phospho-Ser62) (5 μM, 1 hour): 1.02
Fold Change T/C: BID (Ab-78) (5 μM, 1 hour): 1.23
Fold Change T/C: BLNK (Ab-96) (5 μM, 1 hour): 0.97
Fold Change T/C: BLNK (Phospho-Tyr96) (5 μM, 1 hour): 0.51
Fold Change T/C: BRCA1 (Ab-1524) (5 μM, 1 hour): 1.39
Fold Change T/C: Bax (5 μM, 1 hour): 0.89
Fold Change T/C: Beclin-1 (5 μM, 1 hour): 1.49
Fold Change T/C: Beta actin (5 μM, 1 hour): 0.82
Fold Change T/C: CBL (Phospho-Tyr700) (5 μM, 1 hour): 0.88
Fold Change T/C: CDC25C (Ab-216) (5 μM, 1 hour): 1.97
Fold Change T/C: CDK1/CDC2 (Phospho-Tyr15) (5 μM, 1 hour): 0.83
Fold Change T/C: CREB (Ab-133) (5 μM, 1 hour): 0.71
Fold Change T/C: CREB (Phospho-Ser133) (5 μM, 1 hour): 0.74
Fold Change T/C: CaMK2-beta/gamma/delta (Ab-287) (5 μM, 1 hour): 1.42
Fold Change T/C: CaMK2-beta/gamma/delta (Phospho-Thr287) (5 μM, 1 hour): 0.92
Fold Change T/C: CaMK2A (Phospho-Thr286) (5 μM, 1 hour): 0.86
Fold Change T/C: Calmodulin (Ab-79/81) (5 μM, 1 hour): 1.02
Fold Change T/C: Caspase 8 (Phospho-Ser347) (5 μM, 1 hour): 1.08
Fold Change T/C: Caspase 9 (Ab-196) (5 μM, 1 hour): 2.31
Fold Change T/C: Caspase 9 (Phospho-Ser196) (5 μM, 1 hour): 0.94
Fold Change T/C: Catalase (Ab-385) (5 μM, 1 hour): 1.34
Fold Change T/C: Catenin beta (Ab-37) (5 μM, 1 hour): 1.21
Fold Change T/C: Catenin beta (Phospho-Thr41/Ser45) (5 μM, 1 hour): 0.83
Fold Change T/C: Chk2 (Ab-68) (5 μM, 1 hour): 1.17
Fold Change T/C: Chk2 (Phospho-Thr68) (5 μM, 1 hour): 0.51
Fold Change T/C: CrkII (Ab-221) (5 μM, 1 hour): 1.59
Fold Change T/C: Cyclin D1 (Ab-286) (5 μM, 1 hour): 1.10
Fold Change T/C: Cyclin D1 (Phospho-Thr286) (5 μM, 1 hour): 1.18
Fold Change T/C: Cyclin E1 (Ab-77) (5 μM, 1 hour): 1.24
Fold Change T/C: Cyclin E1 (Phospho-Thr77) (5 μM, 1 hour): 1.02
Fold Change T/C: DARPP-32 (Ab-34) (5 μM, 1 hour): 1.01
Fold Change T/C: DARPP-32 (Phospho-Thr34) (5 μM, 1 hour): 0.91
Fold Change T/C: EEF2 (Ab-56) (5 μM, 1 hour): 0.84
Fold Change T/C: EEF2 (Phospho-Thr56) (5 μM, 1 hour): 1.12
Fold Change T/C: EGFR (Ab-1172) (5 μM, 1 hour): 0.86
Fold Change T/C: Elk1 (Ab-389) (5 μM, 1 hour): 1.22
Fold Change T/C: FADD (Phospho-Ser194) (5 μM, 1 hour): 1.53
Fold Change T/C: FAK (Ab-910) (5 μM, 1 hour): 1.76
Fold Change T/C: FAK (Phospho-Ser910) (5 μM, 1 hour): 1.09
Fold Change T/C: FGFR1 (Phospho-Tyr654) (5 μM, 1 hour): 1.35
Fold Change T/C: FKHRL1/FOXO3A (Ab-253) (5 μM, 1 hour): 1.74
Fold Change T/C: FOXO1/3/4-pan (Ab-24/32) (5 μM, 1 hour): 1.40
Fold Change T/C: GAPDH (5 μM, 1 hour): 0.75
Fold Change T/C: GRK2 (Ab-29) (5 μM, 1 hour): 1.92
Fold Change T/C: GRK2 (Phospho-Ser29) (5 μM, 1 hour): 1.26
Fold Change T/C: GSK3 alpha/beta (Phospho-Tyr216/279) (5 μM, 1 hour): 0.97
Fold Change T/C: GSK3 beta (5 μM, 1 hour): 1.12
Fold Change T/C: Gab1 (Ab-627) (5 μM, 1 hour): 1.06
Fold Change T/C: Gab2 (Phospho-Tyr643) (5 μM, 1 hour): 1.59
Fold Change T/C: HDAC1 (Ab-421) (5 μM, 1 hour): 0.79
Fold Change T/C: HDAC1 (Phospho-Ser421) (5 μM, 1 hour): 1.25
Fold Change T/C: HDAC2 (Ab-394) (5 μM, 1 hour): 1.03
Fold Change T/C: HDAC2 (Phospho-Ser394) (5 μM, 1 hour): 0.90
Fold Change T/C: HER2 (Ab-1221/1222) (5 μM, 1 hour): 1.19
Fold Change T/C: HSP27 (Ab-82) (5 μM, 1 hour): 0.82
Fold Change T/C: HSP90B (Phospho-Ser226) (5 μM, 1 hour): 1.00
Fold Change T/C: IKK alpha/beta (Ab-180/181) (5 μM, 1 hour): 0.91
Fold Change T/C: IKK-beta (Ab-199) (5 μM, 1 hour): 1.62
Fold Change T/C: IKK-beta (Phospho-Tyr188) (5 μM, 1 hour): 1.01
Fold Change T/C: IKK-beta (Phospho-Tyr199) (5 μM, 1 hour): 0.84
Fold Change T/C: IKK-gamma (Ab-31) (5 μM, 1 hour): 0.96
Fold Change T/C: IKK-gamma (Phospho-Ser31) (5 μM, 1 hour): 0.98
Fold Change T/C: IL-4R/CD124 (Ab-497) (5 μM, 1 hour): 0.93
Fold Change T/C: IL-4R/CD124 (Phospho-Tyr497) (5 μM, 1 hour): 0.93
Fold Change T/C: IL-10R-alpha (Ab-496) (5 μM, 1 hour): 1.30
Fold Change T/C: IL-10R-alpha (Phospho-Tyr496) (5 μM, 1 hour): 0.85
Fold Change T/C: IRS-1 (Ab-312) (5 μM, 1 hour): 1.03
Fold Change T/C: IkB-alpha (Phospho-Ser32/36) (5 μM, 1 hour): 1.11
Fold Change T/C: IkB-epsilon (Ab-22) (5 μM, 1 hour): 1.30
Fold Change T/C: Integrin beta-3 (Ab-773) (5 μM, 1 hour): 1.08
Fold Change T/C: Integrin beta-3 (Phospho-Tyr773) (5 μM, 1 hour): 0.93
Fold Change T/C: Interferon-alpha/beta receptor alpha chain (Ab-466) (5 μM, 1 hour): 0.90
Fold Change T/C: JAK2 (Ab-1007) (5 μM, 1 hour): 1.36
Fold Change T/C: JunB (Phospho-Ser259) (5 μM, 1 hour): 0.79
Fold Change T/C: LCK (Ab-393) (5 μM, 1 hour): 1.67
Fold Change T/C: LKB1 (Ab-334) (5 μM, 1 hour): 0.94
Fold Change T/C: LYN (Ab-507) (5 μM, 1 hour): 0.58
Fold Change T/C: LYN (Phospho-Tyr507) (5 μM, 1 hour): 1.06
Fold Change T/C: Lamin A/C (Ab-392) (5 μM, 1 hour): 1.84
Fold Change T/C: Lamin A/C (Phospho-Ser392) (5 μM, 1 hour): 0.80
Fold Change T/C: MDM2 (Ab-166) (5 μM, 1 hour): 1.49
Fold Change T/C: MEK1 (Ab-291) (5 μM, 1 hour): 0.77
Fold Change T/C: MEK1 (Phospho-Ser217) (5 μM, 1 hour): 0.62
Fold Change T/C: MITF (Ab-73) (5 μM, 1 hour): 1.38
Fold Change T/C: MKK4/SEK1 (Ab-80) (5 μM, 1 hour): 1.10
Fold Change T/C: MSK1 (Ab-360) (5 μM, 1 hour): 0.69
Fold Change T/C: Myc (Ab-58) (5 μM, 1 hour): 1.09
Fold Change T/C: NFkB-p65 (Ab-529) (5 μM, 1 hour): 1.14
Fold Change T/C: NFkB-p65 (Phospho-Ser311) (5 μM, 1 hour): 1.00
Fold Change T/C: NFkB-p65 (Phospho-Ser529) (5 μM, 1 hour): 0.82
Fold Change T/C: NFkB-p100/p52 (Ab-865) (5 μM, 1 hour): 0.76
Fold Change T/C: NFkB-p100/p52 (Phospho-Ser865) (5 μM, 1 hour): 0.88
Fold Change T/C: NFkB-p105/p50 (Ab-927) (5 μM, 1 hour): 0.85
Fold Change T/C: P38 MAPK (Ab-182) (5 μM, 1 hour): 1.70
Fold Change T/C: P38 MAPK (Phospho-Thr180/Tyr182) (5 μM, 1 hour): 0.35
Fold Change T/C: P70S6K (Ab-229) (5 μM, 1 hour): 1.33
Fold Change T/C: P70S6K (Phospho-Ser424) (5 μM, 1 hour): 1.00
Fold Change T/C: P90RSK (Ab-359/363) (5 μM, 1 hour): 1.06
Fold Change T/C: P90RSK (Phospho-Thr359/Ser363) (5 μM, 1 hour): 0.95
Fold Change T/C: PDK1 (Ab-241) (5 μM, 1 hour): 1.24
Fold Change T/C: PDK1 (Phospho-Ser241) (5 μM, 1 hour): 1.14
Fold Change T/C: PLCG1 (Phospho-Tyr783) (5 μM, 1 hour): 2.25
Fold Change T/C: PLK1 (Ab-210) (5 μM, 1 hour): 1.49
Fold Change T/C: PLK1 (Phospho-Thr210) (5 μM, 1 hour): 0.60
Fold Change T/C: PP1 alpha (Ab-320) (5 μM, 1 hour): 1.15
Fold Change T/C: PP2A-alpha (Ab-307) (5 μM, 1 hour): 1.23
Fold Change T/C: PP2A-alpha (Phospho-Tyr307) (5 μM, 1 hour): 0.93
